The text below walks through data of patent US6413529B1, “Antimicrobial wipes which provide improved residual benefit versus gram negative bacteria” (The Procter & Gamble Company, priority 1999, dated 2002).

In this assay the test system is Microtox Acute Toxicity Reagent (Vibrio fischerio). The experiment in a line: Microtox Response Test (Microtox Response Index of anionic surfactant). The class given is cell-based. The following applies: pure anionic surfactant; EC50 for 50% decrease of bioluminescence, 5 minutes. The text has this: The biological activity/mildness of a pure surfactant can measured directly via a Microtox Response Test hereinafter described in the Analytical Methods section and can be reported as a Microtox Response Index. By “pure surfactant” it is meant a chemical composition consisting essentially of a single surfactant entity, wherein the entity has essentially one chain length, head group and salt counter ion. From a standpoint of high biological activity, preferred anionic surfactants of the antimicrobial cleansing compositions of the present invention have a Microtox Response Index of less that about 150, more preferably less than about 100 and most preferably less than about 50. […]
For surfactant compositions which are mixtures of surfactants rather than pure surfactants (this includes “commercial grade” surfactants which typically comprise mixtures of entities with different chain lengths and potentially have higher levels of impurities), the Microtox Response Index for any individual surfactant component is not a reliable measurement of biological activity or mildness. In the case of mixtures, the Microtox Index of each individual component can be determined and the weighted average used as the Index for the mixture if all the individual components of the mixture are known. […]

ammonium laureth-3 sulfate: the “Microtox Index” value was found to be 120 ppm.

Regarding `CCCCCCCCCCCCOS(=O)(=O)O.N` [ammonium lauryl sulfate], the “Microtox Index” value worked out at 1.0 ppm.
